{
  "source": "patent US20090232917A1",
  "about": "“COMPOSITION FOR RELIEVING SUBJECTIVE SYMPTOMS OF FATIGUE” (Kyowa Hakko Kogyo Co., Ltd., priority 2005, published 2009)",
  "system": "normal subjects (subjective symptoms of fatigue)",
  "experiment": "Test Example 1: subjective symptoms of fatigue by visual analogue scale (VAS) method, tablets for 3 weeks",
  "assay_type": "in vivo, human",
  "details": "6 tablets of Example 1 per day for 3 weeks",
  "description": "A test was carried out as follows. […] Evaluation was carried out in terms of the subjective symptoms of fatigue in the test subjects at the start and completion of the test using a visual analogue scale (VAS) method.\nSpecifically, each end of the segment has a criterion of expression. Referring to FIG. 1 or 2, each subject was allowed to mark somewhere in the segment, corresponding to each term of the questionnaires. Among the subjective symptoms of fatigue, questionnaires 1 to 8 represent indices related to “drowsiness and dullness”, and questionnaires 9 to 15 represent indices related to “difficulty in concentration”.\nThe distance (mm) from the left end of the segment to the marked point was measured and the difference between before and after the test was calculated. The difference by the value before the test was shown in the percentage calculated; and the average value and standard deviation for each group were calculated. […] Further, it was confirmed that there was no difference between two groups at the start of the test.\nFurther, the test was carried out under a random assignment and the comparison between the double blind parallel groups was carried out.",
  "data": [
    {"smiles": "Cl.NCCC[C@H](N)C(=O)O", "note": "[ornithine, ornithine hydrochloride]", "values": [
      {"measurement": "relieving effect on subjective symptoms of fatigue, all terms (drowsiness and dullness; difficulty in concentration)", "setting": "VAS questionnaires 1 to 15, versus placebo group, FIG. 3 and 4", "value": "relieving effect"},
      {"measurement": "\"having difficulty thinking\": difference between the placebo group and the ornithine group", "setting": "VAS, unpaired t-test", "value": "significant difference"}
    ]}
  ]
}
